The assay concerns the target T1, Autotaxin (Homo sapiens, UniProt Q13822).
T1 construct: from tissue; host or cells: pooled human plasma
Briefly: LPA formation in pooled human plasma (ex vivo autotaxin inhibition). In kind it is biochemical. As to conditions: 2 hours incubation. The method, boiled down: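 Ex vivo: LPA 18:2 and 20:4 levels in compound-treated versus untreated pooled human plasma after 2 h incubation, measured by butanol extraction and negative-mode MRM LC/MS/MS against calibration standards. IC50 from non-linear fit of inhibition versus concentration.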

[1] abbreviates: LPA 18:2 by LC/MS/MS, read-out: LPA formation (18:2) (IC50).
[2] abbreviates: LPA 20:4 by LC/MS/MS, read-out: LPA formation (20:4) (IC50).

Where two headings read alike, the source gives them in different places.

For orientation: IC50 means the concentration at which inhibition is half-maximal. For the molecule `CCc1nn2c(C)cc(N3CC4(CN(C(=O)CO)C4)C3)cc2c1N(C)c1nc(-c2ccc(F)cc2)c(C#N)s1` [Example 29, 2-((2-ethyl-5-(6-(2-hydroxyacetyl)-2,6-diazaspiro[3.3]heptan-2-yl)-7-methylpyrazolo[1,5-a]pyridin-3-yl)(methyl)amino)-4-(4-fluorophenyl)thiazole-5-carbonitrile], the IC50 under setting [1] lay in the range of 100 to 500 nM and the IC50 under setting [2] is 500 to 1000 nM.

Regarding `CCc1nn2c(C)cc(N3CC4(CN(C(=O)[C@H](C)O)C4)C3)cc2c1N(C)c1nc(-c2ccc(F)cc2)c(C#N)s1` [Example 62, (S)-2-((2-ethyl-5-(6-(2-hydroxypropanoyl)-2,6-diazaspiro[3.3]heptan-2-yl)-7-methylpyrazolo[1,5-a]pyridin-3-yl)(methyl)amino)-4-(4-fluorophenyl)thiazole-5-carbonitrile], the IC50 runs as follows: under setting [1], 100 to 500 nM; under setting [2], 100 to 500 nM.

For the molecule `CCc1nn2c(C)cc(N3CC4(CCN(C(=O)C(C)(C)O)C4)C3)cc2c1N(C)c1nc(-c2ccc(F)cc2)c(C#N)s1` [Example 53, 2-((2-ethyl-5-(6-(2-hydroxy-2-methylpropanoyl)-2,6-diazaspiro[3.4]octan-2-yl)-7-methylpyrazolo[1,5-a]pyridin-3-yl)(methyl)amino)-4-(4-fluorophenyl)thiazole-5-carbonitril], the IC50 was at most 100 nM under setting [1] and at most 100 nM under setting [2].

Turning to `CCc1nn2cc(F)c(N3CC4(CN(C(=O)N5CCN(C)CC5)C4)C3)cc2c1N(C)c1nc(-c2ccc(F)cc2)c(C#N)s1` [Example 105, 2-((2-ethyl-6-fluoro-5-(6-(4-methylpiperazine-1-carbonyl)-2,6-diazaspiro[3.3]heptan-2-yl)pyrazolo[1,5-a]pyridin-3-yl)(methyl)amino)-4-(4-fluorophenyl)thiazole-5-carbonitrile], the IC50 was at most 100 nM under setting [1] and at most 100 nM under setting [2].

As to `CCc1nn2c(C)cc(N3CC4C(C3)C4NC(=O)[C@H]3CCOC3)cc2c1N(C)c1nc(-c2ccc(F)cc2)c(C#N)s1` (stereo partly drawn) [Example 64, (3S)—N-(3-(3-((5-cyano-4-(4-fluorophenyl)thiazol-2-yl)(methyl)amino)-2-ethyl-7-methylpyrazolo[1,5-a]pyridin-5-yl)-3-azabicyclo[3.1.0]hexan-6-yl)tetrahydrofuran-3-carboxamide], the IC50 is, setting by setting: under setting [1], 100 to 500 nM; under setting [2], 100 to 500 nM.

For the molecule `CCc1nn2cc(C)c(N3CC4(CN(C(=O)C(O)CO)C4)C3)cc2c1N(C)c1nc(-c2ccc(F)cc2)c(C#N)s1` (stereo not drawn) [Example 99, 2-((5-(6-(2,3-dihydroxypropanoyl)-2,6-diazaspiro[3.3]heptan-2-yl)-2-ethyl-6-methylpyrazolo[1,5-a]pyridin-3-yl)(methyl)amino)-4-(4-fluorophenyl)thiazole-5-carbonitrile], the IC50 is, setting by setting: under setting [1], at most 100 nM; under setting [2], at most 100 nM.

`Cc1cc(N2CC3(CN(C(=O)C45CC(C4)C5)C3)C2)cc2c(N(C)c3nc(-c4ccc(F)cc4)c(C#N)s3)c(C3CC3)nn12` [Example 91, 2-((5-(6-(bicyclo[1.1.1]pentane-1-carbonyl)-2,6-diazaspiro[3.3]heptan-2-yl)-2-cyclopropyl-7-methylpyrazolo[1,5-a]pyridin-3-yl)(methyl)amino)-4-(4-fluorophenyl)thiazole-5-carbonitrile]: the IC50 is 100 to 500 nM under setting [1] and 100 to 500 nM under setting [2].

For `CCc1nn2c(C)cc(-c3cnn(C[C@@H](O)CO)c3)cc2c1N(C)c1nc(-c2ccc(F)cc2)c(C#N)s1` [Example 72, (R)-2-((5-(1-(2,3-dihydroxypropyl)-1H-pyrazol-4-yl)-2-ethyl-7-methylpyrazolo[1,5-a]pyridin-3-yl)(methyl)amino)-4-(4-fluorophenyl)thiazole-5-carbonitrile], the IC50 was over 1000 nM under setting [1] and over 1000 nM under setting [2].

As for `CCc1nn2c(C)cc(N3CC4(CN(C(=O)[C@@H](C)O)C4)C3)cc2c1N(C)c1nc(-c2ccc(F)cc2)c(C#N)s1` [Example 63, (R)-2-((2-ethyl-5-(6-(2-hydroxypropanoyl)-2,6-diazaspiro[3.3]heptan-2-yl)-7-methylpyrazolo[1,5-a]pyridin-3-yl)(methyl)amino)-4-(4-fluorophenyl)thiazole-5-carbonitrile], the IC50 runs as follows: under setting [1], 100 to 500 nM; under setting [2], 100 to 500 nM.

Consider `CCc1nn2ccc(N3CCN(CC(=O)N4CC(O)C4)CC3)cc2c1N(C)c1nc(-c2ccc(F)cc2)c(C#N)s1` [Example 1, 2-((2-ethyl-5-(4-(2-(3-hydroxyazetidin-1-yl)-2-oxoethyl)piperazin-1-yl)pyrazolo[1,5-a]pyridin-3-yl)(methyl)amino)-4-(4-fluorophenyl)thiazole-5-carbonitrile], for which the IC50 runs as follows: under setting [1], at most 100 nM; under setting [2], at most 100 nM.

With `CCc1nn2c(C)cc(N3CC4(CN(C(=O)[C@@H]5COC[C@H]5O)C4)C3)cc2c1N(C)c1nc(-c2ccc(F)cc2)c(C#N)s1` (stereo in doubt) [Example 74, 2-((2-ethyl-5-(6-(4-hydroxytetrahydrofuran-3-carbonyl)-2,6-diazaspiro[3.3]heptan-2-yl)-7-methylpyrazolo[1,5-a]pyridin-3-yl)(methyl)amino)-4-(4-fluorophenyl)thiazole-5-carbonitrile], the IC50 lay within 100 to 500 nM under setting [1] and 100 to 500 nM under setting [2].

With `CCc1nn2c(C)cc(N3CC4(C3)CN(S(C)(=O)=O)C4)cc2c1N(C)c1nc(-c2ccc(F)cc2)c(C#N)s1` [Example 71], the concentration for half-maximal inhibition (IC50) reads like this: under setting [1], 100 to 500 nM; under setting [2], 100 to 500 nM.

As for `CCc1nn2ccc(N3CC4(CN(C(=O)N5CCN(C)CC5)C4)C3)cc2c1N(C)c1nc(-c2ccc(F)cc2)c(C#N)s1` [Example 14, 2-((2-ethyl-5-(6-(4-methylpiperazine-1-carbonyl)-2,6-diazaspiro[3.3]heptan-2-yl)pyrazolo[1,5-a]pyridin-3-yl)(methyl)amino)-4-(4-fluorophenyl)thiazole-5-carbonitrile], the IC50 is at most 100 nM under setting [1] and at most 100 nM under setting [2].

For `CCc1nn2c(C)cc(N3CCC4(CN(CC(O)CO)C4)C3)cc2c1N(C)c1nc(-c2ccc(F)cc2)c(C#N)s1` (stereo not drawn) [Example 55, 2-((5-(2-(2,3-dihydroxypropyl)-2,6-diazaspiro[3.4]octan-6-yl)-2-ethyl-7-methylpyrazolo[1,5-a]pyridin-3-yl)(methyl)amino)-4-(4-fluorophenyl)thiazole-5-carbonitrile], the IC50 lay within 100 to 500 nM under setting [1] and 100 to 500 nM under setting [2].

As to `CCc1nn2ccc(N3CC4(CN(C(=O)[C@H]5CCOC5)C4)C3)cc2c1N(C)c1nc(-c2ccc(F)cc2)c(C#N)s1` [Example 10, (S)-2-((2-ethyl-5-(6-(tetrahydrofuran-3-carbonyl)-2,6-diazaspiro[3.3]heptan-2-yl)pyrazolo[1,5-a]pyridin-3-yl)(methyl)amino)-4-(4-fluorophenyl)thiazole-5-carbonitrile], the IC50 by setting is: under setting [1], at most 100 nM; under setting [2], at most 100 nM.

`Cc1cc(N2CCN(C[C@@H](O)CO)CC2)cc2c(N(C)c3nc(-c4ccc(F)cc4)c(C#N)s3)c(C3CC3)nn12` [Example 82, (R)-2-((2-cyclopropyl-5-(4-(2,3-dihydroxypropyl)piperazin-1-yl)-7-methylpyrazolo[1,5-a]pyridin-3-yl)(methyl)amino)-4-(4-fluorophenyl)thiazole-5-carbonitrile]: the IC50 under setting [1] lay within 100 to 500 nM and the 50% inhibitory concentration (IC50) under setting [2] was 100 to 500 nM.

On to `Cc1cn2nc(C3CC3)c(N(C)c3nc(-c4ccc(F)cc4)c(C#N)s3)c2cc1N1CCN(CC(=O)N2CC(O)C2)CC1` [Example 100, 2-((2-cyclopropyl-5-(4-(2-(3-hydroxyazetidin-1-yl)-2-oxoethyl)piperazin-1-yl)-6-methylpyrazolo[1,5-a]pyridin-3-yl)(methyl)amino)-4-(4-fluorophenyl)thiazole-5-carbonitrile], for which the IC50 is at most 100 nM under setting [1] and at most 100 nM under setting [2].

With `CCc1nn2c(C)cc(N3CC4(CN(C(=O)c5cnco5)C4)C3)cc2c1N(C)c1nc(-c2ccc(F)cc2)c(C#N)s1` [Example 57, 2-((2-ethyl-7-methyl-5-(6-(oxazole-5-carbonyl)-2,6-diazaspiro[3.3]heptan-2-yl)pyrazolo[1,5-a]pyridin-3-yl)(methyl)amino)-4-(4-fluorophenyl)thiazole-5-carbonitrile], the IC50 runs as follows: under setting [1], at most 100 nM; under setting [2], at most 100 nM.

`CCc1nn2ccc(N3CCN(CC(=O)N4CC[C@H](O)C4)CC3)cc2c1N(C)c1nc(-c2ccc(F)cc2)c(C#N)s1` [Example 2, (S)-2-((2-ethyl-5-(4-(2-(3-hydroxypyrrolidin-1-yl)-2-oxoethyl)piperazin-1-yl)pyrazolo[1,5-a]pyridin-3-yl)(methyl)amino)-4-(4-fluorophenyl)thiazole-5-carbonitrile]: the IC50 by setting is: under setting [1], at most 100 nM; under setting [2], at most 100 nM.

As for `CCc1nn2ccc(N3CC4(CN(C(=O)N5CC(O)C5)C4)C3)cc2c1N(C)c1nc(-c2ccc(F)cc2)c(C#N)s1` [Example 11, 2-((2-ethyl-5-(6-(3-hydroxyazetidine-1-carbonyl)-2,6-diazaspiro[3.3]heptan-2-yl)pyrazolo[1,5-a]pyridin-3-yl)(methyl)amino)-4-(4-fluorophenyl)thiazole-5-carbonitrile], the IC50 was at most 100 nM under setting [1] and at most 100 nM under setting [2].

For `CCc1nn2c(C)cc(N3CCN(CC(=O)N4CC(O)C4)CC3)nc2c1N(C)c1nc(-c2ccc(F)cc2)c(C#N)s1` [Example 95, 2-((2-ethyl-5-(4-(2-(3-hydroxyazetidin-1-yl)-2-oxoethyl)piperazin-1-yl)-7-methylpyrazolo[1,5-a]pyrimidin-3-yl)(methyl)amino)-4-(4-fluorophenyl)thiazole-5-carbonitrile], the IC50 is, setting by setting: under setting [1], over 1000 nM; under setting [2], over 1000 nM.
